# Values of other authors, collected in patent publication US20050124791A1, “Ion channel” (priority 2001, published 2005).
# Tested on: adenylate cyclase from the outer segment of the bovine retina
# Settings: membrane-associated and purified soluble enzyme
row,Compound,stimulation of the enzyme
1,Nc1nc2c(ncn2[C@@H]2O[C@H](COP(=O)(O)OP(=O)(O)OP(=O)(O)O)[C@@H](O)[C@H]2O)c(=O)[nH]1 [GTP],Neither the membrane-associated nor the purified soluble enzyme can be stimulated
2,Nc1nc2c(ncn2[C@@H]2O[C@H](COP(=O)(O)OP(=O)(O)OP(O)(O)=S)[C@@H](O)[C@H]2O)c(=O)[nH]1 [GTPyS],Neither the membrane-associated nor the purified soluble enzyme can be stimulated
3,GMPPhT,Neither the membrane-associated nor the purified soluble enzyme can be stimulated
